Measured values from ChEMBL document CHEMBL1201862, “PubChem BioAssay data set” (2004).
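Method: 48-hour compound exposure of cells in 96-well plates, five concentrations, linear interpolation of endpoints. GI50 is the concentration that inhibits growth by half.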 Active and inactive are the calls of the source. No stated cut-off is given here; in the data, active = GI50 up to about 1.1 µM and inactive = higher.

Legend:
Assay in all cases: inhibition of tumour cell growth, NCI panel, 48 h
OVCAR-4 = tested on: OVCAR-4
SF-268 = tested on: SF-268
COLO 205 = tested on: COLO 205
NCI-H23 = tested on: NCI-H23
SNB-19 = tested on: SNB-19
EKVX = tested on: EKVX
SW-620 = tested on: SW-620
DU-145 = tested on: DU-145
M14 = tested on: M14
UO-31 = tested on: UO-31
786-0 = tested on: 786-0
UACC-257 = tested on: UACC-257
TK-10 = tested on: TK-10
U-251 = tested on: U-251
NCI-H226 = tested on: NCI-H226
HOP-62 = tested on: HOP-62
LOX IMVI = tested on: LOX IMVI
Hs-578T = tested on: Hs-578T
CAKI-1 = tested on: CAKI-1
MDA-N = tested on: MDA-N
SK-MEL-2 = tested on: SK-MEL-2
A498 = tested on: A498
SF-539 = tested on: SF-539
MDA-MB-231 = tested on: MDA-MB-231
A549 = tested on: A549
HOP-92 = tested on: HOP-92
T47D = tested on: T47D
RPMI-8226 = tested on: RPMI-8226
CCRF-CEM = tested on: CCRF-CEM
IGROV-1 = tested on: IGROV-1
MCF7 = tested on: MCF7
SF-295 = tested on: SF-295
NCI-H522 = tested on: NCI-H522
OVCAR-8 = tested on: OVCAR-8
HCT-15 = tested on: HCT-15
HCT-116 = tested on: HCT-116
UACC-62 = tested on: UACC-62
SNB-75 = tested on: SNB-75
NCI/ADR-RES = tested on: NCI/ADR-RES
RXF 393 = tested on: RXF 393
MDA-MB-435 = tested on: MDA-MB-435
OVCAR-3 = tested on: OVCAR-3
MOLT-4 = tested on: MOLT-4
ACHN = tested on: ACHN
HL-60 = tested on: HL-60
SN12C = tested on: SN12C
BT-549 = tested on: BT-549
PC-3 = tested on: PC-3
HT-29 = tested on: HT-29
OVCAR-5 = tested on: OVCAR-5
HCC 2998 = tested on: HCC 2998
K562 = tested on: K562
NCI-H460 = tested on: NCI-H460
SK-OV-3 = tested on: SK-OV-3
KM12 = tested on: KM12
SK-MEL-5 = tested on: SK-MEL-5
Malme-3M = tested on: Malme-3M
SK-MEL-28 = tested on: SK-MEL-28
SR = tested on: SR

Compound: CCCNC(=S)N/C=C1\C(=O)Nc2ccccc2C1=O
- GI50 (OVCAR-4): > 100 µM (inactive)
- GI50 (SF-268): > 100 µM (inactive)
- GI50 (COLO 205): > 100 µM (inactive)
- GI50 (NCI-H23): > 100 µM (inactive)
- GI50 (SNB-19): > 100 µM (inactive)
- GI50 (EKVX): > 100 µM (inactive)
- GI50 (SW-620): > 100 µM (inactive)
- GI50 (DU-145): > 100 µM (inactive)
- GI50 (M14): > 100 µM (inactive)
- GI50 (UO-31): > 100 µM (inactive)
- GI50 (786-0): > 100 µM (inactive)
- GI50 (UACC-257): > 100 µM (inactive)
- GI50 (TK-10): > 100 µM (inactive)
- GI50 (U-251): > 100 µM (inactive)
- GI50 (NCI-H226): > 100 µM (inactive)
- GI50 (HOP-62): > 100 µM (inactive)
- GI50 (LOX IMVI): > 100 µM (inactive)
- GI50 (Hs-578T): > 100 µM (inactive)
- GI50 (CAKI-1): > 100 µM (inactive)
- GI50 (MDA-N): > 100 µM (inactive)
- GI50 (SK-MEL-2): > 100 µM (inactive)
- GI50 (A498): > 100 µM (inactive)
- GI50 (SF-539): > 100 µM (inactive)
- GI50 (MDA-MB-231): > 100 µM (inactive)
- GI50 (A549): > 100 µM (inactive)
- GI50 (HOP-92): > 100 µM (inactive)
- GI50 (T47D): > 100 µM (inactive)
- GI50 (RPMI-8226): > 100 µM (inactive)
- GI50 (CCRF-CEM): > 100 µM (inactive)
- GI50 (IGROV-1): > 100 µM (inactive)
- GI50 (MCF7): > 100 µM (inactive)
- GI50 (SF-295): > 100 µM (inactive)
- GI50 (NCI-H522): > 100 µM (inactive)
- GI50 (OVCAR-8): > 100 µM (inactive)
- GI50 (HCT-15): > 100 µM
- GI50 (HCT-116): > 100 µM (inactive)
- GI50 (UACC-62): > 100 µM (inactive)
- GI50 (SNB-75): 83.2 µM (inactive)
- GI50 (NCI/ADR-RES): > 100 µM (inactive)
- GI50 (RXF 393): > 100 µM (inactive)
- GI50 (MDA-MB-435): > 100 µM (inactive)
- GI50 (OVCAR-3): > 100 µM (inactive)
- GI50 (MOLT-4): > 100 µM (inactive)
- GI50 (ACHN): > 100 µM (inactive)
- GI50 (HL-60): > 100 µM (inactive)
- GI50 (SN12C): > 100 µM (inactive)
- GI50 (BT-549): > 100 µM (inactive)
- GI50 (PC-3): > 100 µM (inactive)
- GI50 (HT-29): > 100 µM (inactive)
- GI50 (OVCAR-5): > 100 µM (inactive)
- GI50 (HCC 2998): > 100 µM (inactive)
- GI50 (K562): > 100 µM (inactive)
- GI50 (NCI-H460): > 100 µM (inactive)
- GI50 (SK-OV-3): > 100 µM (inactive)
- GI50 (KM12): > 100 µM (inactive)
- GI50 (SK-MEL-5): > 100 µM (inactive)

Compound: COc1ccc2c(c1)N=C1CSC(c3c(Cl)cccc3[N+](=O)[O-])N1C2 (stereo not given)
- GI50 (OVCAR-4): 56.6 µM (inactive)
- GI50 (SF-268): 63.4 µM (inactive)
- GI50 (COLO 205): 24.9 µM (inactive)
- GI50 (NCI-H23): 45.3 µM (inactive)
- GI50 (SNB-19): > 100 µM (inactive)
- GI50 (Malme-3M): 44.3 µM (inactive)
- GI50 (EKVX): 40.3 µM (inactive)
- GI50 (SW-620): 36.6 µM (inactive)
- GI50 (M14): 51.6 µM (inactive)
- GI50 (UO-31): 30.8 µM (inactive)
- GI50 (786-0): 51.5 µM (inactive)
- GI50 (UACC-257): 27 µM (inactive)
- GI50 (TK-10): 48.4 µM (inactive)
- GI50 (U-251): 54.2 µM (inactive)
- GI50 (NCI-H226): 0.918 µM (active)
- GI50 (HOP-62): > 100 µM (inactive)
- GI50 (LOX IMVI): 35.5 µM (inactive)
- GI50 (Hs-578T): 45.4 µM (inactive)
- GI50 (CAKI-1): 37.8 µM (inactive)
- GI50 (MDA-N): 29.8 µM (inactive)
- GI50 (SK-MEL-2): 35.4 µM (inactive)
- GI50 (SF-539): 37.2 µM (inactive)
- GI50 (MDA-MB-231): 33.3 µM (inactive)
- GI50 (A549): 42.8 µM (inactive)
- GI50 (HOP-92): 40 µM (inactive)
- GI50 (T47D): 49 µM (inactive)
- GI50 (RPMI-8226): 30 µM (inactive)
- GI50 (IGROV-1): 62.8 µM (inactive)
- GI50 (MCF7): 30.1 µM (inactive)
- GI50 (SF-295): 40.6 µM (inactive)
- GI50 (NCI-H522): 31 µM (inactive)
- GI50 (OVCAR-8): 46.9 µM (inactive)
- GI50 (HCT-15): 30.8 µM
- GI50 (HCT-116): 35.5 µM (inactive)
- GI50 (UACC-62): 22.4 µM (inactive)
- GI50 (SNB-75): 25.1 µM (inactive)
- GI50 (NCI/ADR-RES): 34.5 µM (inactive)
- GI50 (RXF 393): 29.5 µM (inactive)
- GI50 (SK-MEL-28): 20.5 µM (inactive)
- GI50 (MDA-MB-435): 27.5 µM (inactive)
- GI50 (MOLT-4): 20 µM (inactive)
- GI50 (ACHN): 36.1 µM (inactive)
- GI50 (HL-60): 31 µM (inactive)
- GI50 (SN12C): 53.7 µM (inactive)
- GI50 (BT-549): 24.7 µM (inactive)
- GI50 (PC-3): 40.6 µM (inactive)
- GI50 (HT-29): 38.2 µM (inactive)
- GI50 (OVCAR-5): > 100 µM (inactive)
- GI50 (HCC 2998): 21.4 µM (inactive)
- GI50 (K562): 35.4 µM (inactive)
- GI50 (NCI-H460): 20 µM (inactive)
- GI50 (SK-OV-3): > 100 µM (inactive)
- GI50 (KM12): 33.5 µM (inactive)
- GI50 (SK-MEL-5): 19.4 µM (inactive)

Compound: COc1cc(C2c3cc4c(cc3C3OC[C@@H]2C3CO)OCO4)cc(OC)c1OC (stereo not given in full)
- GI50 (OVCAR-4): 71.1 µM (inactive)
- GI50 (SF-268): 31.3 µM (inactive)
- GI50 (COLO 205): 18.4 µM (inactive)
- GI50 (SNB-19): 57.3 µM (inactive)
- GI50 (Malme-3M): 67.6 µM (inactive)
- GI50 (EKVX): 41.2 µM (inactive)
- GI50 (SW-620): 34 µM (inactive)
- GI50 (M14): 31.3 µM (inactive)
- GI50 (UO-31): 45.4 µM (inactive)
- GI50 (786-0): 43.1 µM (inactive)
- GI50 (UACC-257): 18.2 µM (inactive)
- GI50 (TK-10): 37.5 µM (inactive)
- GI50 (U-251): 34.7 µM (inactive)
- GI50 (NCI-H226): 20.2 µM (inactive)
- GI50 (LOX IMVI): 31.2 µM (inactive)
- GI50 (Hs-578T): 34.4 µM (inactive)
- GI50 (CAKI-1): 78.7 µM (inactive)
- GI50 (MDA-N): 8.28 µM (inactive)
- GI50 (SK-MEL-2): 40.2 µM (inactive)
- GI50 (A498): 42 µM (inactive)
- GI50 (MDA-MB-231): 38.1 µM (inactive)
- GI50 (A549): 44.7 µM (inactive)
- GI50 (HOP-92): > 100 µM (inactive)
- GI50 (T47D): > 100 µM (inactive)
- GI50 (RPMI-8226): 38.6 µM (inactive)
- GI50 (CCRF-CEM): 23.4 µM (inactive)
- GI50 (IGROV-1): 43.1 µM (inactive)
- GI50 (MCF7): 35.2 µM (inactive)
- GI50 (SF-295): 28.8 µM (inactive)
- GI50 (NCI-H522): 23 µM (inactive)
- GI50 (OVCAR-8): 40.7 µM (inactive)
- GI50 (SR): 13.3 µM (inactive)
- GI50 (HCT-15): 23.3 µM
- GI50 (SNB-75): 25.6 µM (inactive)
- GI50 (NCI/ADR-RES): 20.1 µM (inactive)
- GI50 (RXF 393): 37.6 µM (inactive)
- GI50 (SK-MEL-28): > 100 µM (inactive)
- GI50 (MDA-MB-435): 6.81 µM (inactive)
- GI50 (MOLT-4): 33.1 µM (inactive)
- GI50 (ACHN): 80.4 µM (inactive)
- GI50 (HL-60): 2.66 µM (inactive)
- GI50 (BT-549): 29.9 µM (inactive)
- GI50 (PC-3): 49.3 µM (inactive)
- GI50 (HT-29): 28.4 µM (inactive)
- GI50 (OVCAR-5): 60.5 µM (inactive)
- GI50 (K562): 24.9 µM (inactive)
- GI50 (NCI-H460): 20.3 µM (inactive)
- GI50 (SK-OV-3): 54.2 µM (inactive)
- GI50 (KM12): 23 µM (inactive)
- GI50 (SK-MEL-5): 11.5 µM (inactive)
